The text below walks through data of ChEMBL document CHEMBL5346941, “Design, synthesis and evaluation of novel monoamine oxidase B (MAO-B) inhibitors with improved pharmacokinetic properties for Parkinson's disease” (Eur J Med Chem, 2023).

A word on the IC50: it is the concentration that inhibits the measured activity by half. By Cmax is commonly meant the maximum level reached in the sampled fluid or tissue. The term AUC(0-t) denotes exposure summed from dosing to a finite time, without extrapolation to infinity. A lower AUC(0-t) goes with low exposure. The term clearance denotes the volume of plasma or blood freed of the substance per unit of time. The low end stands for inefficient removal, the high end for efficient removal. In general, bioavailability refers to the share of a dose that reaches the circulation, judged against a reference dose that is usually intravenous.

Data set [1] addresses T1, Amine oxidase [flavin-containing] A (Homo sapiens, UniProt P21397).
T1 sequence (P21397 whole entry): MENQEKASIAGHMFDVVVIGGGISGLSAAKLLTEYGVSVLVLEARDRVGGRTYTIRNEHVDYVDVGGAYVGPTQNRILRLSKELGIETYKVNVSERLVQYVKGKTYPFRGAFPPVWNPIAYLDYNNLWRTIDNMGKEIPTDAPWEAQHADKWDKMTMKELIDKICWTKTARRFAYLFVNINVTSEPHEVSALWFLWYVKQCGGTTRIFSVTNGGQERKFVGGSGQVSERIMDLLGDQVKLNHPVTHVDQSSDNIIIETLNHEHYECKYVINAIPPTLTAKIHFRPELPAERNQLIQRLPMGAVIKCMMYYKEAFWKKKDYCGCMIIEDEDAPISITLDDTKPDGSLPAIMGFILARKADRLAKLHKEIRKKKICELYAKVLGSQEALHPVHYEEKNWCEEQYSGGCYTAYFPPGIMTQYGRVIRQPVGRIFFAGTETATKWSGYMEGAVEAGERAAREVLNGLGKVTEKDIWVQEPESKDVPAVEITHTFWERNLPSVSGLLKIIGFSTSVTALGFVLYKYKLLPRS
Description: Inhibition of recombinant human MAO-A expressed in Sf9 cells using […] as substrate preincubated for 15 mins followed by substrate addition and measured after 60 mins by luciferin based luminescence analysis.

Data set [2] deals with T2, Amine oxidase [flavin-containing] B (Homo sapiens, UniProt P27338).
T2 sequence (P27338 whole entry): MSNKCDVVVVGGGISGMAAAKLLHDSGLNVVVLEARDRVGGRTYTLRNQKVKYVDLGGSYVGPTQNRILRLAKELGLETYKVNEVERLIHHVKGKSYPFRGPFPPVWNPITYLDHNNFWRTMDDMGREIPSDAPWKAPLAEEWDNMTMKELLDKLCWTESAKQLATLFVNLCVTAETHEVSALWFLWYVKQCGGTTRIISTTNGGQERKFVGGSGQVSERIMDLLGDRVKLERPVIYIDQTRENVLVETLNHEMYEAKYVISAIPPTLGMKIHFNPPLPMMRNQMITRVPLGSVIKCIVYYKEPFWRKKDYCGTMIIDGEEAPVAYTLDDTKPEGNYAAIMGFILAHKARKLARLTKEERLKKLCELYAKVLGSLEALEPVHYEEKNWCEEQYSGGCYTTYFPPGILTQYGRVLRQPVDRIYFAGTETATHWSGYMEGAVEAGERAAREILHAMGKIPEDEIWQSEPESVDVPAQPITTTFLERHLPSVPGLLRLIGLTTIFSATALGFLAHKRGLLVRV
Put plainly: Inhibition of recombinant human MAO-B expressed in Sf9 cells using p-tyramine as substrate preincubated for 15 mins followed by substrate addition and measured after 60 mins by luciferin based luminescence analysis.

A short description of data set [3]: Cmax in fasted Sprague-Dawley rat at 1 mg/kg, iv measured for 24 hrs. Format: ADME, organism-based. Also noted: dose 1 mg/kg, time 24 hrs, route iv. The note with it: Sprague-Dawley, in vivo, read-out: Cmax.
Data set [4] is described as follows: AUC (0 to t) in fasted Sprague-Dawley rat at 1 mg/kg, iv measured for 24 hrs. Format: ADME, organism-based. Also noted: dose 1 mg/kg, time 24 hrs, route iv. Conditions: in vivo.
Data set [5] can be described thus: Elimination half life in fasted Sprague-Dawley rat at 1 mg/kg, iv measured for 24 hrs. Format: ADME, organism-based. Conditions: in vivo, read-out: beta t1/2 (converted).
The nature of data set [6]: Volume of distribution at steady state in fasted Sprague-Dawley rat at 1 mg/kg, iv measured for 24 hrs. Conditions: in vivo, read-out: Vdss. Format: ADME, organism-based.
The nature of data set [7]: Clearance in fasted Sprague-Dawley rat at 1 mg/kg, iv measured for 24 hrs. Conditions: in vivo. Format: ADME, organism-based.
The nature of data set [8]: Cmax in fasted Sprague-Dawley rat at 5 mg/kg, IG measured for 24 hrs. Also noted: dose 5 mg/kg, time 24 hrs, route ig. Conditions: in vivo, po. Format: ADME, organism-based.
Data set [9] can be described thus: AUC (0 to t) in fasted Sprague-Dawley rat at 5 mg/kg, IG measured for 24 hrs. Format: ADME, organism-based. Also noted: dose 5 mg/kg, time 24 hrs, route ig. Conditions: in vivo, po.
Data set [10] in a line: Elimination half life in fasted Sprague-Dawley rat at 5 mg/kg, IG measured for 24 hrs. Format: ADME, organism-based. Conditions: in vivo, po, read-out: beta t1/2 (converted).
A short description of data set [11]: Bioavailability in fasted Sprague-Dawley rat at 5 mg/kg, IG measured for 24 hrs. Format: ADME, organism-based. The note with it: in vivo, po.

Some results are limits rather than exact numbers.

`COc1ccccc1-c1cc2cc(CN3CC[C@H]3C(N)=O)ccc2o1`: the IC50 in [1] was over 10 µM; in data set [2], 1.93 µM.
For `COc1cccc(-c2cc3cc(CN4CC[C@H]4C(N)=O)ccc3o2)c1`, in that order: over 10 µM and 0.103 µM.
Take `C[C@H](NCc1ccc2oc(-c3ccccc3F)cc2c1)C(N)=O`: the IC50 in data set [1] was 6.2 µM; in data set [2], 5.01 µM.
With `C[C@H](NCc1ccc2oc(-c3cccc(F)c3)cc2c1)C(N)=O`, the IC50 in data set [1] stood at 4.94 µM; in data set [2], 2.25 µM.
For `C[C@H](NCc1ccc2oc(-c3ccc(F)cc3)cc2c1)C(N)=O`, the IC50 amounted to 3.54 µM in data set [1] and 0.948 µM in [2].
Regarding `COc1cccc(-c2cc3cc(CN[C@@H](C)C(N)=O)ccc3o2)c1`, the IC50 amounted to 5.91 µM in [1] and 4.55 µM in data set [2].
For `NC(=O)[C@@H]1CCN1Cc1ccc2oc(-c3ccccc3F)cc2c1`, the results for the IC50 in data set [1] and in [2] were over 10 µM and 0.073 µM, respectively. The values for the Cmax in data set [3] and in data set [8] were 360 ng/mL and 167 ng/mL, respectively. Further, the AUC(0-t) at 24 h came out at 155 ng·h/mL in data set [4] and 672 ng·h/mL in [9]. Besides, the half-life in data set [5] is 22.4 min; in data set [10], 69 min. Further, the Vd in data set [6] is 2.39 L/kg. The molecule also registered a clearance in data set [7] of 106 mL/min/kg. Further, the bioavailability in data set [11] is 86.7%.
In the case of `NC(=O)[C@@H]1CCN1Cc1ccc2oc(-c3cccc(F)c3)cc2c1`, the IC50 in data set [1] came to 4.91 µM; in data set [2] it was 0.086 µM. Further, the Cmax in data set [3] came to 204 ng/mL; in [8], 185 ng/mL. Moreover, the AUC(0-t) at 24 h in [4] is 188 ng·h/mL; in data set [9] it was 527 ng·h/mL. For the same molecule, the half-life is 47 min in data set [5] and 63.6 min in [10]. For the same molecule, the Vd in [6] stood at 4.96 L/kg. The same molecule showed a clearance in data set [7] of 87.9 mL/min/kg. The same molecule registered a bioavailability in [11] of 56.3%.
